# Patent US20240238247A1, “METHOD OF TREATING EXPRESSIVE LANGUAGE DEFICIT IN AUTISTIC HUMANS” (AMS Therapeutics, priority 2022, published 2024)
# “Also recorded” adds a separate entry of the source.
# What was measured:
# Assay type in all cases: in vivo
# [1] = tested on: autistic human patients with expressive language deficit; experiment: Expressive language (verbal output) graded on 7-point scale (0-6) in autistic patients treated with ethosuximide (ETS); conditions: for mean expressive language score after six months (Rx): FIG. 1; for Improvement Over Baseline, Expressive language: after six months of ETS therapy; for mean improvement in expressive language score: normal IQ patients (N=8) treated more than one month, 7-point scale of Table 1
# Description: To assess the effectiveness of ethosuximide as a pharmacological treatment for expressive language deficit, 24 human patients were treated with ethosuximide (ETS) for at least one month, more preferably six months or longer, and their language, social, and behavioral skills were monitored throughout the course of treatment, typically every 1-3 months. Study participants (subjects) were divided into four treatment groups based on neurodevelopmental level (mental status): normal IQ (NIQ), borderline IQ (BIQ), mild mental retardation (mMR), and moderate mental retardation (moMR). Language skills (expressiveness, receptivity), social behavior (social interaction, eye contact, participation), and mood (affect, irritability, agitation) were evaluated at various points in time. Verbal output was graded using a 7-point scale (0-6), where 0=nonverbal, 1=echolalic (the patient can respond by echoing the speaker), 2=single words (the patient can respond in single words), 3=phrases (the patient can respond in a simple phrase), 4=sentences (the patient can respond in a full sentence), 5=spontaneous speech (the patient can speak spontaneously), and 6=mutual speech (the patient can have a true conversation with another person). [table] To evaluate drug efficacy and onset of action, each patient was monitored for changes in language, social behavior, and mood at various times after commencement of ETS therapy. Performance characteristics observed for each function (expressive language, mood, behavior) are summarized in Table 6, at t=1 month after commencement of treatment and t=3 months after commencement of treatment.
# [2] = tested on: autistic human patients; experiment: Social behavior graded on 7-point scale (-3 to +3 vs baseline), based on Aberrant Behavior Checklist, in autistic patients treated with ETS; conditions: for Improvement Over Baseline, Social behavior: after six months of ETS therapy
# Description: (§1) To assess the effectiveness of ethosuximide as a pharmacological treatment for expressive language deficit, 24 human patients were treated with ethosuximide (ETS) for at least one month, more preferably six months or longer, and their language, social, and behavioral skills were monitored throughout the course of treatment, typically every 1-3 months. Study participants (subjects) were divided into four treatment groups based on neurodevelopmental level (mental status): normal IQ (NIQ), borderline IQ (BIQ), mild mental retardation (mMR), and moderate mental retardation (moMR). Language skills (expressiveness, receptivity), social behavior (social interaction, eye contact, participation), and mood (affect, irritability, agitation) were evaluated at various points in time. Verbal output was graded using a 7-point scale (0-6), where 0=nonverbal, 1=echolalic (the patient can respond by echoing the speaker), 2=single words (the patient can respond in single words), 3=phrases (the patient can respond in a simple phrase), 4=sentences (the patient can respond in a full sentence), 5=spontaneous speech (the patient can speak spontaneously), and 6=mutual speech (the patient can have a true conversation with another person). Social behavior and mood symptoms, based on those described in the Aberrant Behavior Checklist, an established behavioral rating system used in evaluating patients with intellectual disabilities (see Aman, M. G., et al., “The Aberrant Behavior Checklist: A behavior rating scale for the assessment of treatment effects,” American Journal of Mental Deficiency, 89(5):485-491 (1985), incorporated by reference herein), were also graded on a 7-point scale (0±3). […] Social behavior and mood data are presented below in Table 8. To evaluate drug efficacy and onset of action, each patient was monitored for changes in language, social behavior, and mood at various times after commencement of ETS therapy. Performance characteristics observed for each function (expressive language, mood, behavior) are summarized in Table 6, at t=1 month after commencement of treatment and t=3 months after commencement of treatment.
# [3] = tested on: autistic human patients; experiment: Mood graded on 7-point scale (-3 to +3 vs baseline), based on Aberrant Behavior Checklist, in autistic patients treated with ETS; conditions: for Improvement Over Baseline, Mood: after six months of ETS therapy
# Description: as §1
# [4] = tested on: autistic human patients; experiment: Tolerability / side effects of ETS treatment in the study patients
# Excerpt: Common side effects reported in the literature for patients receiving ethosuximide treatment for childhood absence epilepsy include abdominal distress, diarrhea, weight loss, hyperactivity, lethargy, leukopenia, and depression. Very few of these symptoms were reported or observed in the patients participating in the study herein described. Eleven patients stopped ETS treatment after 6 months or less. Five of these patients dropped out for non-medical reasons.
# [5] = normal IQ patients, Aberrant Behavior Checklist methodology
structure (smiles),measurement,setting,value
"CCC1(C)CC(=O)NC1=O (centres unmarked) [ETS, 2-ethyl-2-methylsuccinimide]",mean expressive language score after six months (Rx),"[1]; BIQ group, N=4, baseline 1.7, 0-6 scale",2.75
same,"Improvement Over Baseline, Expressive language",[1]; BIQ,+1.0
same,mean expressive language score after six months (Rx),"[1]; NIQ group, N=8, baseline 2.5, 0-6 scale",4.4
same,"Improvement Over Baseline, Expressive language",[1]; NIQ,+2.0
same,expressive language score,"[1]; Patient A, after 3 months, baseline score 2 (single words)",3
same,"expressive language, observation","[1]; Patient A, at 6-9 months",responding in full sentences
same,"expressive language, observation","[1]; Patient A, at 9-12 months",speak spontaneously and even ask questions
same,Language development,"[1]; Patient A, baseline SW, 1 mo.",Increased
same,Language development (expressive language class),"[1]; Patient A, baseline SW, 3 mo.",PH (Phrases)
same,Language development (expressive language class),"[1]; Patient A, baseline SW, 6 mo.",SN/SP
same,Language development (expressive language class),"[1]; Patient A, baseline SW, 9 mo.",SN/SP
same,Language development (expressive language class),"[1]; Patient A, baseline SW, 12 mo.",SN/SP/MU
same,"expressive language, observation","[1]; Patient A, one month after onset of ETS treatment, baseline score 2",saying more words
same,Language development (4-word PH),"[1]; Patient B, baseline EC/2-word PH, 3 mo.",4-word
same,Language development (expressive language class),"[1]; Patient B, baseline EC/2-word PH, 6 mo.",SN (Sentences)
same,Language development (expressive language class),"[1]; Patient B, baseline EC/2-word PH, 9 mo.",SN/SP
same,"expressive language, observation","[1]; Patient B, by month 6",speak in sentences
same,"expressive language, observation","[1]; Patient B, by month 9",converse spontaneously at times
same,"expressive language, observation","[1]; Patient B, three months after onset of treatment, echolalic, some two-word phrases before",3 and 4-word phrases
same,expressive language skills during treatment,"[1]; Patient C, autistic child, 6 months of ETS, FIG. 3",steadily improved
same,"expressive language, observation","[1]; Patients A and B (normal IQ), by 9 months from commencement of treatment, FIG. 2",some spontaneous speech
same,language skills after ETS treatment was stopped,"[1]; Patients C (stopped at 6 months) and D (stopped at 9 months), evaluated several months later, FIG. 3",continued to improve
same,"Expressive language: increased word count (talking more), score change",[1]; after 1 month of treatment,count (+1)
same,"Expressive language, observed performance",[1]; after 3 months of treatment,2-word phrases and Listening better and makes wants clearer
same,effect on expressive language skills,[1]; both epileptic (7 of 24) and non-epileptic patients,improved
same,mean expressive language score after six months (Rx),"[1]; mMR group, N=6, baseline 1.3, 0-6 scale",2.5
same,"Improvement Over Baseline, Expressive language",[1]; mMR,+1.2
same,mean expressive language score after six months (Rx),"[1]; moMR group, N=2, baseline 0.5, 0-6 scale",1.0
same,"Improvement Over Baseline, Expressive language",[1]; moMR,+0.5
same,mean improvement in expressive language score,[1],1.9 points
same,mean improvement in expressive language score,[1]; listed as ethosuximide,about 2 points
same,improvements in expressive language and social skills,[1]; one month after commencing daily treatment,evident
same,retention of language gains after discontinuation,[1]; patients who discontinued treatment (after six months),did not lose their language gains
same,"Improvement Over Baseline, Social behavior",[2]; BIQ,+1.5
same,"Improvement Over Baseline, Social behavior",[2]; NIQ,+2.0
same,"Social behavior, observed performance",[2]; after 1 month of treatment,More engaged
same,"Social behavior: increased eye contact, score change",[2]; after 1 month of treatment,contact (+1)
same,"Social behavior, observed performance",[2]; after 3 months of treatment,Sits in groups
same,"Improvement Over Baseline, Social behavior",[2]; mMR,+1.0
same,"Improvement Over Baseline, Social behavior",[2]; moMR,+1.0
same,gain in social behavior,[2]; [5],+2 points
same,"Improvement Over Baseline, Mood",[3]; BIQ,+1.4
same,"Improvement Over Baseline, Mood",[3]; NIQ,+1.2
same,Mood / focus observation,"[3]; Patient B, 3 months after onset of treatment",more focused and calmer; also recorded: focused; also recorded: calmer
same,"Mood: calmer, score change",[3]; after 1 month of treatment,Calmer (+1)
same,"Mood: more focused, score change",[3]; after 1 month of treatment,More focused (+1)
same,"Mood, observed performance",[3]; after 3 months of treatment,Fewer tantrums
same,"Improvement Over Baseline, Mood",[3]; mMR,+1.0
same,"Improvement Over Baseline, Mood",[3]; moMR,0.0
same,"Improvement Over Baseline, Mood","[3]; moMR, listed as ethosuximide",no change
same,gain in mood,[3]; [5],+1.2 points
same,tolerability,"[4]; all ages evaluated (3-24 years), 150-1000 mg b.i.d.",well tolerated
same,"literature side effects (abdominal distress, diarrhea, weight loss, hyperactivity, lethargy, leukopenia, depression) reported or observed",[4]; patients participating in the study,Very few
